Test results reported in article PMC6272399, “Anti-Proliferative Effect and Induction of Apoptosis in Androgen-Independent Human Prostate Cancer Cells by 1,5-Bis(2-hydroxyphenyl)-1,4-pentadiene-3-one” (Molecules, 2015).

Key:
[1] = test system: androgen-dependent prostate cancer cells; design: method as in PMID 21796654; details: cited from earlier work
[2] = test system: PC-3 cells; assay: BrdU cell proliferation assay, PC-3; format: cell-based, human; details: PC-3, BrdU
Experimental: (§1) The anti-proliferative effects of compound on treated cells, was measured using the BrdU cell proliferation assay kit (Roche Applied Science Diagnostics, Indianapolis, IN, USA) according to the manufacturer’s protocol. The assay was based on incorporation of BrdU during DNA synthesis in proliferating cells. Cells were plated at a concentration of 10^4 cells/mL in a 96-well microtiter plate and incubated overnight. The cells were treated with compounds and curcumin (concentrations ranging from 1.56 µM–100 µM) as positive control for 24, 48 and 72 h respectively. Then, BrdU labeling solution (5 µL, diluted by 1/100 in culture media) was added to each well and incubated for 2 h at 37 °C. The media was replaced with fix/denaturing solution (100 µL) and incubated for 30 min at room temperature. Then, the fix/denaturing solution was removed by tapping off and followed by addition of 50 µL anti-BrdU antibody (50 µL, diluted by 1/100 in dilution buffer) to each well and further incubated for another 90 min at room temperature. Next, the cells were washed 3 times with wash buffer and substrate solution (50 µL) was added to each well. The plate was left for 10 min at room temperature in the dark and the absorbance was measured at a wavelength of 370 nm with a reference wavelength of 492 nm using a micro-plate ELISA reader (Bio-Rad). The percentage of BrdU incorporation was determined based on the ratio of absorbance of sample treated-cells to absorbance of control (untreated cells/DMSO only) multiplied by 100.

[3] = test system: DU 145 cells; assay: BrdU cell proliferation assay, DU 145; format: cell-based, human; details: DU 145, BrdU
Experimental: as §1

[4] = test system: prostate cancer cells; design: method as in PMID 21796654; details: compound labeled ca27; cited from earlier work
[5] = test system: PC-3 cells; assay: Free nucleosome detection (Cell Death Detection ELISA), PC-3; format: cell-based, human; details: PC-3, 9.0 and 13.5 µM, 24, 48 and 72 h
Experimental: To confirm the presence of histone-bound DNA fragments (free nucleosomes) in the prostate cancer cells after the treatment of MS17, Cell Death Detection ELISA^PLUS kit (Roche Diagnostics) was used according to the manufacturer’s protocol. Cells were plated on a bottom flat tissue culture plates at a concentration of 10^5 cells per well and incubated for 24 h to allow the cells to adhere. After overnight incubation, MS17 at various concentrations (EC50, 2 × EC50, 3 × EC50) were added to a final volume of 100 µL per well and further incubated for 24, 48 and 72 h. The plate was centrifuged at 600 rpm at 4 °C for 10 min. The cell pellet containing the apoptotic bodies was resuspended in lysis buffer and incubated for 30 min at room temperature. […] The amount of nucleosomes retained by the POD in the immunocomplex, corresponding to the extent of apoptosis and necrosis, was determined with 2,2'-azinobis-3-ethyl-benzothiazoline-6-sulfonic acid (ABTS) as substrate using a micro-plate ELISA reader at a wavelength of 405/490 nm. The amount of enrichment of mono- and oligonucleosomes released into the cytoplasm was calculated using the following formula: Enrichment factor= Absorbance of sample/Absorbance of control

[6] = test system: DU 145 cells; assay: AO/EB double staining, morphology and quantification of apoptotic and necrotic cells, DU 145; format: cell-based, human; details: for necrotic cells: approximate
Experimental: (§2) Cell morphological changes were assessed by the differential staining DNA-intercalate fluorescent dyes acridine orange (AO) and ethidium bromide (EB). Cells (3 × 10^5) were seeded in a 6-well tissue culture plates, treated with MS17 at various concentrations (EC50, 2 × EC50, 3 × EC50) and incubated for 12, 24, 48 and 72 h time intervals. After incubation, cell pellets were suspended in 50 µL of cold PBS. To each samples, 10 µL of cell suspension was added with 1 µL of AO/EB dye mixture (1 part of 100 µg/mL of AO in PBS; 1 part of 100 µg/mL of EB in PBS) prior to microscopic examination. Ten microliter of the cell suspension mixed with the dye mixture was placed on a glass microscopic slide covered with a cover slip and was observed and photographed with a fluorescence microscope using a fluorescein filter (BX41, Olympus, Center Valley, PA, USA). A minimum of 200 total targeted cells were counted per sample and the percentage of cells from each population (viable, early apoptosis, late apoptosis and necrosis) was calculated. The experiment was conducted in triplicates. Untreated cells containing DMSO alone were used as negative control.

[7] = test system: PC-3 cells; assay: AO/EB double staining, morphology and quantification of apoptotic and necrotic cells, PC-3; format: cell-based, human
Experimental: as §2

O=C(C=Cc1ccccc1O)C=Cc1ccccc1O [MS17, 1,5-bis(2-hydroxyphenyl)-1,4-pentadiene-3-one]
anti-androgenic effect [1]: exert anti-androgenic effect
concentration from which anti-proliferative activity is significant ([2]; 24 h): 6.3 µM
concentration from which anti-proliferative activity is significant ([2]; 48 h): 12.5 µM
concentration from which anti-proliferative activity is significant ([2]; 72 h): 12.5 µM
concentration from which anti-proliferative activity is significant ([3]; 24 h): 6.3 µM
concentration from which anti-proliferative activity is significant ([3]; 48 h): 6.3 µM
concentration from which anti-proliferative activity is significant ([3]; 72 h): 12.5 µM
growth inhibition of prostate cancer cells [4]: able to inhibit the growth of prostate cancer cells at a concentration below that typically used for curcumin
nucleosomal fragments (enrichment factor) [5]: significant increase in nucleosomal fragments
necrotic cells ([6]; DU 145, 4.2 µM, 48 h): approximately 10%
morphological observation of cell nuclei (AO/EB) ([6]; DU 145, MS17-treated vs untreated): typical signs of apoptosis such as cell shrinkage, formation of apoptotic bodies and membrane blebbing
necrotic cells ([6]; DU 145, all examined doses, 24 h): < 5%
morphological observation of cell nuclei (AO/EB) ([7]; PC-3, MS17-treated vs untreated): typical signs of apoptosis such as cell shrinkage, formation of apoptotic bodies and membrane blebbing
necrotic cells ([7]; PC-3, all three doses, 12 and 24 h): less than 5%
